Earlier results as cited in patent US20260108502A1, “ORAL DELIVERY FORMULATIONS USING SELF EMULSIFYING GRANULES AND LIPID BASED GRANULES” (BOARD OF REGENTS, THE UNIVERSITY OF TEXAS SYSTEM, priority 2024, published 2026).

strongest basic pKa: 2.84
Structure (SMILES): CC(C)c1nc(CN(C)C(=O)N[C@H](C(=O)N[C@@H](Cc2ccccc2)C[C@H](O)[C@H](Cc2ccccc2)NC(=O)OCc2cncs2)C(C)C)cs1 [Ritonavir]
